Measured values: paper PMC4860947 (Nature, 2016)

What was measured:
C. glabrata [1] = type: in vivo, Candida glabrata; details: mice; fluconazole 100 mg/kg/day, 7 days
[2] = tested on: C. glabrata PDR1 wild-type or PDR1^L280F strains; parameters: species or system Candida glabrata; details: in vivo
C. glabrata [3] = experiment: Mouse disseminated fungal burden model; type: in vivo, Candida glabrata; details: mice, CgPDR1 wild-type strain; 25 mg/kg fluconazole (low FLU) alone
[4] = tested on: C. glabrata adherence to CHO-Lec2 cells; experiment: Yeast adherence to CHO-Lec2 epithelial cells; type: cell-based, Candida glabrata; details: ketoconazole 40 µM alone, last 15 minutes
[5] = tested on: C. glabrata strains with wild-type or gain-of-function CgPDR1; type: cell-based, Candida glabrata; details: azole alone

OC(Cn1cncn1)(Cn1cncn1)c1ccc(F)cc1F [fluconazole]
fungal burden in the bladder and kidney (C. glabrata [1]): significantly reduces fungal burden | survival of G. mellonella larvae [2]: sensitive to fluconazole alone | survival of G. mellonella larvae compared to vehicle [2]: did not significantly increase survival | tissue fungal burden (C. glabrata [3]): poorly reduced tissue burden

CC(=O)N1CCN(c2ccc(OCC3COC(Cn4ccnc4)(c4ccc(Cl)cc4Cl)O3)cc2)CC1 (stereo not drawn) [ketoconazole]
relative adherence of PDR1^L280F mutant to epithelial (CHO-Lec2) cells [4]: reduced relative adherence to levels comparable to a PDR1 wild-type strain | sensitivity of CgPDR1 wild-type strain to azole on plates [5]: sensitive
